# Experiments:
# rice = assay: Test B flooded paddy test; assay type: in vivo, Oryza sativa; details: 250 g ai/ha, Flood; scale of 0 to 100 where 0 is no effect and 100 is complete control
# Description: (§1) Plant species in the flooded paddy test selected from rice (Oryza sativa), sedge, umbrella (small-flower umbrella sedge, Cyperus difformis), ducksalad (Heteranthera limosa), and barnyardgrass (Echinochloa crus-galli) were grown to the 2-leaf stage for testing. At time of treatment, test pots were flooded to 3 cm above the soil surface, treated by application of test compounds directly to the paddy water, and then maintained at that water depth for the duration of the test. Treated plants and controls were maintained in a greenhouse for 13 to 15 days, after which time all species were compared to controls and visually evaluated. Plant response ratings, summarized in Table B, are based on a scale of 0 to 100 where 0 is no effect and 100 is complete control. A dash (-) response means no test result.
# wheat = assay: Test A pre-/postemergence herbicide test; assay type: in vivo, Triticum aestivum; details: for Wheat plant response rating: Preemergence, visual rating on 0 to 100 scale (0 no effect, 100 complete control)
# Outline: (§2)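 Scoring was visual, relative to untreated controls, on a 0–100 scale after about 10 greenhouse days. Preemergence treatment used a directed soil spray over seeded loam/sand; postemergence treatment targeted one- to two-leaf plants of 2–10 cm.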
# corn = assay: Test A pre-/postemergence herbicide test; assay type: in vivo, Zea mays; details: for Corn plant response rating: Preemergence, visual rating on 0 to 100 scale (0 no effect, 100 complete control)
# Outline: as §2
# barnyardgrass [1] = assay: Test B flooded paddy test; assay type: in vivo, Echinochloa crus-galli; details: 250 g ai/ha, Flood; scale of 0 to 100 where 0 is no effect and 100 is complete control
# Description: as §1
# morningglory = assay: Test A pre-/postemergence herbicide test; assay type: in vivo, Ipomoea spp.; details: for Morningglory plant response rating: Preemergence, visual rating on 0 to 100 scale (0 no effect, 100 complete control)
# Outline: as §2
# barnyardgrass [2] = assay: Test A pre-/postemergence herbicide test; assay type: in vivo, Echinochloa crus-galli; details: for Barnyardgrass plant response rating: Preemergence, visual rating on 0 to 100 scale (0 no effect, 100 complete control)
# Outline: as §2
# velvetleaf = assay: Test A pre-/postemergence herbicide test; assay type: in vivo, Abutilon theophrasti; details: for Velvetleaf plant response rating: Preemergence, visual rating on 0 to 100 scale (0 no effect, 100 complete control)
# Outline: as §2
# crabgrass, large = assay: Test A pre-/postemergence herbicide test; assay type: in vivo, Digitaria sanguinalis; details: for Crabgrass, Large plant response rating: Preemergence, visual rating on 0 to 100 scale (0 no effect, 100 complete control)
# Outline: as §2
# pigweed = assay: Test A pre-/postemergence herbicide test; assay type: in vivo, Amaranthus retroflexus; details: for Pigweed plant response rating: Preemergence, visual rating on 0 to 100 scale (0 no effect, 100 complete control)
# Outline: as §2
# giant foxtail = assay: Test A pre-/postemergence herbicide test; assay type: in vivo, Setaria faberii; details: for Foxtail, Giant plant response rating: Preemergence, visual rating on 0 to 100 scale (0 no effect, 100 complete control)
# Outline: as §2
# ducksalad = assay: Test B flooded paddy test; assay type: in vivo, Heteranthera limosa; details: 250 g ai/ha, Flood; scale of 0 to 100 where 0 is no effect and 100 is complete control
# Description: as §1
# sedge, umbrella = assay: Test B flooded paddy test; assay type: in vivo, Cyperus difformis; details: 250 g ai/ha, Flood; scale of 0 to 100 where 0 is no effect and 100 is complete control
# Description: as §1
# [3] = Postemergence, 125 g ai/ha, 0 to 100 scale, 0 no effect, 100 complete control
# [4] = Postemergence, 500 g ai/ha, 0 to 100 scale (0 no effect, 100 complete control)
# [5] = preemergence, 500 g ai/ha, 0 to 100 scale
# [6] = preemergence, 500 g ai/ha, 0 to 100 scale (0 no effect, 100 complete control)
SMILES,"Plant response rating, Rice (rice)","Plant response rating, Wheat (wheat; [3])","Plant response rating, Wheat (wheat; [4])",Wheat plant response rating (wheat; 125 g ai/ha),"Plant response rating, Wheat (wheat; [5])","Plant response rating, Corn (corn; [3])","Plant response rating, Corn (corn; [4])",Corn plant response rating (corn; 125 g ai/ha),"Plant response rating, Corn (corn; [5])","Plant response rating, Barnyardgrass (barnyardgrass [1])","Plant response rating, Morningglory (morningglory; [3])","Plant response rating, Morningglory (morningglory; [4])",Morningglory plant response rating (morningglory; 125 g ai/ha),"Plant response rating, Morningglory (morningglory; [5])","Plant response rating, Barnyardgrass (barnyardgrass [2]; [3])","Plant response rating, Barnyardgrass (barnyardgrass [2]; [4])",Barnyardgrass plant response rating (barnyardgrass [2]; 125 g ai/ha),"Plant response rating, Barnyardgrass (barnyardgrass [2]; [6])","Plant response rating, Velvetleaf (velvetleaf; [3])","Plant response rating, Velvetleaf (velvetleaf; [4])",also measured
O=C1NCC(c2ccc(Cl)c(Cl)c2)C1C(=O)Nc1ccccc1OC(F)(F)F (racemic) [Compound 32],0,0,0,0,0,0,0,0,0,0,0,0,0,0,0,0,0,0,0,0,"Velvetleaf plant response rating (velvetleaf; 125 g ai/ha): 0; Plant response rating, Velvetleaf (velvetleaf; [5]): 0; Plant response rating, Crabgrass, Large (crabgrass, large; [3]): 0; Plant response rating, Crabgrass, Large (crabgrass, large; [4]): 30; Crabgrass, Large plant response rating (crabgrass, large; 125 g ai/ha): 80; Plant response rating, Crabgrass, Large (crabgrass, large; [5]): 80; Plant response rating, Pigweed (pigweed; [3]): 0; Plant response rating, Pigweed (pigweed; [4]): 0; Pigweed plant response rating (pigweed; 125 g ai/ha): 0; Plant response rating, Pigweed (pigweed; [5]): 0; Plant response rating, Foxtail, Giant (giant foxtail; [3]): 0; Plant response rating, Foxtail, Giant (giant foxtail; [4]): 40; Foxtail, Giant plant response rating (giant foxtail; 125 g ai/ha): 70; Plant response rating, Foxtail, Giant (giant foxtail; [5]): 80; Plant response rating, Ducksalad (ducksalad): 50; Plant response rating, Sedge, Umbrella (sedge, umbrella): 0"
COc1cccc(C2CNC(=O)C2C(=O)Nc2ccccc2F)c1 (racemic) [Compound 36],0,0,0,0,20,0,0,0,0,0,0,0,0,0,0,80,40,80,0,0,"Velvetleaf plant response rating (velvetleaf; 125 g ai/ha): 0; Plant response rating, Velvetleaf (velvetleaf; [5]): 0; Plant response rating, Crabgrass, Large (crabgrass, large; [3]): 0; Plant response rating, Crabgrass, Large (crabgrass, large; [4]): 20; Crabgrass, Large plant response rating (crabgrass, large; 125 g ai/ha): 20; Plant response rating, Crabgrass, Large (crabgrass, large; [5]): 80; Plant response rating, Pigweed (pigweed; [3]): 0; Plant response rating, Pigweed (pigweed; [4]): 0; Pigweed plant response rating (pigweed; 125 g ai/ha): 0; Plant response rating, Pigweed (pigweed; [5]): 0; Plant response rating, Foxtail, Giant (giant foxtail; [3]): 0; Plant response rating, Foxtail, Giant (giant foxtail; [4]): 20; Foxtail, Giant plant response rating (giant foxtail; 125 g ai/ha): 20; Plant response rating, Foxtail, Giant (giant foxtail; [5]): 70; Plant response rating, Ducksalad (ducksalad): 60; Plant response rating, Sedge, Umbrella (sedge, umbrella): 40"

# — patent US10294202B2, “Pyrrolidinones as herbicides” (FMC Corporation, priority 2013, dated 2019)
